Laboratory results from patent publication US20250283049A1, “AGENT FOR CULTURING ORGANOID IN ABSENCE OF EXTRACELLULAR MATRIX” (KEIO UNIVERSITY, priority 2022, published 2025).

Assays:
Format in all cases: cell-based
[1] = tested on: human small intestine-derived organoids; test: Immunostaining for localization of YAP and Ki67; conditions: 10 μM Lats-IN; in both presence and absence of Matrigel; approximately 10% without Lats-IN
Experimental: (§1) Human small intestine-derived organoids and human large intestine-derived organoids were cultured in the absence and presence of Matrigel (registered trademark) and in the absence and presence of a LATS kinase inhibitor (final concentration: 10 μM) in the same manner as in Experimental Example 2. Subsequently, immunostaining was performed to confirm the localization of YAP. In addition, Ki67, a marker for cell proliferation, was detected to confirm proliferating cells.
The fields of view in the second, third, and fourth panels from the top correspond to the area enclosed in the square in the uppermost panel.
The fields of view in the second, third, and fourth panels from the top correspond to the area enclosed in the square in the uppermost panel. The scale bar represents 50 μm. […]
(§2) FIG. 7 is a graph summarizing the results of FIGS. 5 and 6. As a result, in both the presence and absence of Matrigel (registered trademark), in the absence of Lats-IN, YAP was localized in the cytoplasm, and when the number of Ki67-positive cells, which indicates cell proliferation, was counted, the percentage of Ki67-positive cells was approximately 10% of the total cells. In contrast, in both the presence and absence of Matrigel (registered trademark), in the presence of Lats-IN, the number of cells in which YAP was localized in the nucleus was counted. […]

AXIN2 gene [2] = test: AXIN2 gene expression by quantitative real-time PCR in human large intestine-derived organoids; conditions: absence of Matrigel; Lats-IN 10 μM
Experimental: (§3) Human small intestine-derived organoids and human large intestine-derived organoids were cultured in the absence or presence of Matrigel (registered trademark) and in the absence or presence of Lats-IN (final concentration: 10 μM), and the expression level of the AXIN2 gene, whose expression is regulated by Wnt, was examined by quantitative real-time PCR.
(§4) FIG. 16 presents graphs showing the results of quantitative real-time PCR.

[3] = tested on: human small intestine-derived organoids; test: Niche factor removal; continuous passaging P0 to P16 in absence of Matrigel; conditions: Lats-IN 10 μM
Experimental: FIG. 15 is a graph showing the results of measuring the proliferation of human small intestine-derived organoids cultured in the absence of Matrigel (registered trademark), in the absence or presence of Lats-IN (final concentration: 10 μM), under conditions in which all WRENAIF niche factors were added, and under conditions in which some of these niche factors were removed. In FIG. 15, P0 to P16 indicate passage numbers 0 to 16. In addition, the dark colors in the graph indicate successful passaging, while the light colors indicate unsuccessful passaging.

AXIN2 gene [4] = test: AXIN2 gene expression by quantitative real-time PCR in human small intestine-derived organoids; conditions: absence of Matrigel; Lats-IN 10 μM
Experimental: as §3, §4

[5] = tested on: crypts collected from the human colon; test: Organoid establishment from human colon crypts dissociated into single cells; cell number by ATP; conditions: absence of Matrigel, presence of TRULI; compared with presence of Matrigel
Experimental: Crypts were collected from the human colon and dissociated into single cells, then cultured in the presence of Matrigel (registered trademark) or in the absence of Matrigel (registered trademark) and in the presence of TRULI to establish organoids. In addition, the cell number in each organoid under the given conditions was measured by measuring ATP using a commercially available kit (product name “CellTiter-Glo 3D,” Promega Corporation).
The upper panel of FIG. 30 is a schematic view explaining an overview of this experimental example. The lower panel of FIG. 30 is a graph showing the results of measuring the proliferation of the organoids.

[6] = tested on: human large intestine-derived organoids; test: Immunostaining for localization of YAP and Ki67; conditions: 10 μM Lats-IN; in both presence and absence of Matrigel; approximately 10% without Lats-IN
Experimental: as §1
The leftmost column of FIG. 6 presents photographs showing the results of immunostaining of the human large intestine-derived organoids cultured in the presence of Matrigel (registered trademark) and in the absence of Lats-IN (Ctrl). […]
as §2

[7] = tested on: phosphorylated ERK (Thr202/Tyr204); test: ERK phosphorylation by Western blotting in human small intestine-derived organoids; conditions: absence of Matrigel; Lats-IN 10 μM
Experimental: Next, human small intestine-derived organoids were cultured in the absence or presence of Matrigel (registered trademark) and in the absence or presence of Lats-IN (final concentration: 10 μM), and ERK phosphorylated by EGF signaling was detected by Western blotting.
FIG. 17 presents graphs showing the results of Western blotting. In FIG. 17, “pERK” represents phosphorylated ERK, and “total ERK” represents total ERK (the sum of phosphorylated ERK and non-phosphorylated ERK). In addition, “pYAP” represents phosphorylated YAP, and “total YAP” represents total YAP (the sum of phosphorylated YAP and non-phosphorylated YAP). The antibody against phosphorylated ERK used was phospho-ERK (Thr202/Tyr204) (#4370, Cell Signaling Technology, Inc.). The antibody against total ERK used was total-ERK (#4695, Cell Signaling Technology, Inc.). The antibody against phosphorylated YAP used was phospho-YAP (Ser127) (#4911, Cell Signaling Technology, Inc.). The antibody against total YAP used was total-YAP (#14074, Cell Signaling Technology, Inc.).

In the case of O=C(N=c1sccn1Cc1ccccc1)c1c[nH]c2ncccc12 [Lats-IN], the “percentage of Ki67-positive cells” value [1] is reported as ≥ 50 % of the total cells, the “expression level of AXIN2” value (AXIN2 gene [2]) is reported as “increased to a level equivalent to that in the presence of Matrigel” and the “continuous passaging in medium lacking any of the WRENAIF niche factors” value [3] is reported as “continuous passaging was not possible”. For the same molecule, the “expression level of AXIN2” value (AXIN2 gene [4]) was “increased to a level equivalent to that in the presence of Matrigel”, the “cell proliferation (ATP) during organoid establishment” value [5] was “comparable to that observed in the presence of Matrigel” and the “percentage of Ki67-positive cells” value [6] was ≥ 50 % of the total cells. For the same molecule, the ERK phosphorylation [7] was “increased to a level equivalent to that in the presence of Matrigel”.
